Patent US4992449A, “7-(substituted)cycloalkylamino-1 -(substituted)-6-fluoro-1,4-dihydro-4-oxo-3-quinolinecarboxylic acids” (American Cyanamid Company, priority 1990, dated 1991)
In brackets after ≈: the same amount, converted by molar mass.

How the values were obtained:
Assay in all cases: In vitro antibacterial MIC, agar plate dilution
Format in all cases: cell-based
[1] = tested on: Citrobacter diversus K 82-24; conditions: Citrobacter koseri, K8224, Mueller-Hinton agar, 10^4 CFU, 18 hours, 35° C.
Summary of the method: (§1)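 Agar plate dilution on Mueller-Hinton agar, with about 10^4 colony forming units of each organism applied by Steers replicating device. MIC, in mcg/ml, is the lowest compound concentration preventing visible growth after 18 hours at 35° C.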

[2] = tested on: Klebsiella neumoniae CMC 84-31; conditions: CMC8431, Mueller-Hinton agar, 10^4 CFU, 18 hours, 35° C.
Summary of the method: as §1

[3] = tested on: Moranella morganii CMC 84-38; conditions: Mueller-Hinton agar, 10^4 CFU, 18 hours, 35° C.
Summary of the method: as §1

[4] = tested on: Pseudomonas aeruginosa CMC 83-20; conditions: CMC8320, Mueller-Hinton agar, 10^4 CFU, 18 hours, 35° C.
Summary of the method: as §1

[5] = tested on: Pseudomonas aeruginosa VGH 84-3; conditions: VGH843, Mueller-Hinton agar, 10^4 CFU, 18 hours, 35° C.
Summary of the method: as §1

[6] = tested on: Serratia marcescens IO 83-63; conditions: IO8363, Mueller-Hinton agar, 10^4 CFU, 18 hours, 35° C.
Summary of the method: as §1

[7] = tested on: Staphylococcus aureus Smith 1; conditions: Staphylococcus aureus, SMITH1, 18 h, Table II, read-out: MIC
Summary of the method: as §1

[8] = tested on: Staphylococcus aureus VGH 84-45; conditions: VGH8445, 18 h, Table II, read-out: MIC
Summary of the method: as §1

[9] = tested on: Staphylococcus faecalis VGH 84-69; conditions: VGH8469, Mueller-Hinton agar, 10^4 CFU, 18 hours, 35° C.
Summary of the method: as §1

[10] = tested on: Streptococcus faecalis UCI 85-19; conditions: Enterococcus faecalis, UCI8519, 18 h, Table II, read-out: MIC
Summary of the method: as §1

Staphylococcus SSC 82-56 = conditions: SSC8256, 18 h, Table II
Summary of the method: as §1

[11] = tested on: Staphylococcus aureus CMC 83-131; conditions: CMC83131, Mueller-Hinton agar, 10^4 CFU, 18 hours, 35° C.
Summary of the method: as §1

[12] = tested on: Staphylococcus aureus NEMC 87-59; conditions: NEMC8759, 18 h, Table II
Summary of the method: as §1

Row | MIC [1] [µg/mL] | MIC [2] [µg/mL] | MIC [3] [µg/mL] | MIC [4] [µg/mL] | MIC [5] [µg/mL] | MIC [6] [µg/mL] | MIC [7] [µg/mL] | MIC [8] [µg/mL] | MIC [9] [µg/mL] | MIC [10] [µg/mL] | MIC (Staphylococcus SSC 82-56) [µg/mL] | MIC [11] [µg/mL] | MIC [12] [µg/mL] | Compound
1 | 0.5 (≈ 1.5 µM) | 2 (≈ 6 µM) | 1 (≈ 3 µM) | > 16 | > 16 | 1 (≈ 3 µM) | 8 (≈ 24 µM) | 64 (≈ 192 µM) | 4 (≈ 12 µM) | 32 (≈ 96 µM) |  |  |  | CCn1cc(C(=O)O)c(=O)c2cc(F)c(N[C@@H]3CCC[C@@H]3N)cc21 (relative stereo) [Example 4, Cis-7-[(2-Aminocyclopentyl)amino]-1-ethyl-6-fluoro-1,4-dihydro-4-oxo-3-quinolinecarboxylic acid]
2 | 2 (≈ 5.01 µM) | 4 (≈ 10 µM) | 8 (≈ 20 µM) | > 16 | > 16 | 4 (≈ 10 µM) | 2 (≈ 5.01 µM) | 4 (≈ 10 µM) | > 16 | 64 (≈ 160 µM) | 2 (≈ 5.01 µM) | > 16 | 4 (≈ 10 µM) | N[C@H]1CCC[C@H]1Nc1cc2c(cc1F)c(=O)c(C(=O)O)cn2-c1ccc(F)cc1 (relative stereo) [Example 3]
